Read-outs that look alike come from different tables or passages of the source.
Key:
[1] = Metabolic stability in liver microsomes; assay type: in vitro ADME, human; conditions: 0.5 µM test substance, 0.5 mg/mL microsomes, NADPH and UDPGA, 37° C.; for half-life at 0.5 µM: human, human liver microsomes, read-out: T½(min), stability in human liver microsomes
Procedure: Liver microsomes (purchased from Reed Liver Disease Research (Shanghai) Co., Ltd., product: human liver microsomes (NJT)); NADPH (purchased from Roche, Lot: 40939); UDPGA; the compounds of the present invention (test substances).
• (1) A mixed working solution of testosterone (0.5 µM) and 7-hydroxycoumarin (0.5 µM) was prepared. • (2) A mixed solution of NADPH (1 mM) and UDPGA (1 mM) was prepared, and prewarmed at 37° C. in a water bath shaker before use. • (3) Liver microsomes were thawed and diluted with a buffer. • (4) A preparation of a test substance (0.5 µM) and a solution of liver microsomes (0.5 mg/mL) were added to each well of an incubation plate. • (5) Three experimental groups were set and samples were added. Test group: the test substance was incubated with liver microsomes for 0 min, 30 min, 60 min, and 120 min in the presence of the coenzyme NADPH and UDPGA; Positive control group: testosterone (0.5 µM) and 7-hydroxycoumarin (0.5 µM) were incubated with microsomes for 0 min and 120 min in the presence of the coenzyme NADPH and UDPGA; Negative control group: the test substance was incubated with microsomes for 0 and 120 min without any coenzyme. • (6) All samples were incubated at 37° C., and pre-cooled methanol was added at each termination time (0, 15, 30, 45, 60 min, 120 min) to terminate the reaction, and the time was recorded. • (7) All samples were mixed well and centrifuged at 4000 rpm for 10 min. The supernatant was taken and measured by LC-MS/MS for the amount of the test substance remaining in the samples. Data analysis was carried out as follows: T½=0.693 /k, Clint = (0.693/T½) × (1 /(microsomal protein) × Scaling Factors), Note: k is the slope of the logarithm of the remaining amounts of compound versus time.

DNA-PK kinase = biological target: T1, DNA-PK kinase (Homo sapiens, UniProt P78527); assay: Inhibition assay of DNA-PK kinase (Promega kit, ADP-Glo chemiluminescence); assay type: biochemical; conditions: 50 µM ATP, 37° C., 60 min; read-out: IC50 (nM), inhibitory activity on DNA-PK kinase
T1 construct: purchased Promega V4107
Procedure: The inhibitory activity of the compounds on DNA-PK kinase was measured by using a DNA-PK kinase assay kit (purchased from Promega, Cat.#: V4107, Lot: 0000366495). The results were quantified by chemiluminescence, and the detailed experimental protocol was as follows: • i. An ADP-fluorescence standard curve over a range of concentrations was plotted according to the kit instructions; • ii. […] The mixtures were mixed well, centrifuged (1000 rpm, 30 s), and incubated at 37° C. for 60 min; • iv. 5 µL of ADP-Glo™ Reagent was added to stop the reaction, which was then mixed well, centrifuged (1000 rpm, 30 s), and incubated at room temperature for 40 min; • v. 10 µL Kinase Detection Reagent was added, and the mixture was mixed well by shaking, centrifuged (1000 rpm, 30 s), and incubated at room temperature for 30 min; • vi. The […] was measured by using a microplate reader (Thermo fisher, Varioskan LUX).

[2] = Pharmacokinetic assay in ICR mice (i.v. and p.o.); assay type: in vivo; conditions: mouse, plasma, male ICR mice; for half-life: read-out: T½ (converted); for bioavailability: po 10 mg/kg vs iv 1 mg/kg
Procedure: ICR mice were purchased from Beijing Vital River Laboratory Animal Technology Co., Ltd.
3.2 Experimental procedure • (1) Healthy male ICR mice (18-22 g) were prepared, with 18 mice for each compound. The mice were divided into 2 groups (an i.v. group and a p.o. group), with 9 mice per group. 3 mice were picked for blood collection at each time point. • (2) After the animals were fasted overnight (with free access to water), the compound of the present invention dissolved (or suspended) in a solvent of 5% DMSO and 95% 30% HP-β-CD (v:v) was administered via the tail vein (i.v., 1 mg/kg) or intragastrically (p.o., 10 mg/kg), respectively. • (3) For the i.v. group, 0.1 mL blood was collected from the submandibular vein 5 min, 15 min, 0.5 h, 1 h, 2 h, 4 h, 8 h, 12 h, and 24 h after administration, respectively, anticoagulated with EDTA-K2, and centrifuged at 4° C. for 5 min to obtain plasma, which was stored at -20° C. until testing. (4) For the p.o. group, 0.1 mL blood was collected from the submandibular vein before administration and 15 min, 0.5 h, 1 h, 2 h, 4 h, 6 h, 8 h, 12 h, and 24 h after administration, and treated in the same manner as that for the intravenous group. • (5) The concentration of the compound of the present invention in plasma was measured by LC/MS/MS. • (6) Calculation and fitting were performed with Analyst 1.6 from AB Company, and the results are shown in Table 3.

Row | half-life at 0.5 µM [1] | IC50 (DNA-PK kinase) | SMILES | further results
1 | > 120 min | – | Cc1cc(C(N)=O)c(F)cc1Nc1ncc2c(n1)n(C1CCC(C)(C#N)CC1)c(=O)n2C (single isomer, unassigned) [Compound 92-1, 4-((9-(4-cyano-4-methylcyclohexyl)-7-methyl-8-oxo-8,9-dihydro-7H-purin-2-yl)amino)-2-fluoro-5-methylbenzamide] | –
2 | > 120 min | 1.25 nM | Cc1cc(C(N)=O)c(F)cc1Nc1ncc2c(n1)n(C1CCCOC1)c(=O)n2C (stereo not shown) [Compound 69, 2-fluoro-5-methyl-4-((7-methyl-8-oxo-9-(tetrahydro-2H-pyran-3-yl)-8,9-dihydro-7H-purin-2-yl)amino)benzamide] | –
3 | > 120 min | – | Cc1cc(C(N)=O)c(F)cc1Nc1ncc2c(n1)n([C@H]1CC[C@@](C)(O)CC1)c(=O)n2C [Compound 72, 2-Fluoro-4-((9-(cis-4-hydroxy-4-methylcyclohexyl)-7-methyl-8-oxo-8,9-dihydro-7H-purin-2-yl)amino)-5-methylbenzamide] | AUC ([2]; iv, 1 mg/kg): 1700 ng·h/mL; half-life ([2]; iv, 1 mg/kg): 2.92 h; bioavailability [2]: 166%; AUC ([2]; po, 10 mg/kg): 28200 ng·h/mL; Cmax ([2]; po, 10 mg/kg): 4680 ng/mL; half-life ([2]; po, 10 mg/kg): 2.58 h
4 | > 120 min | – | Cc1cc(C(N)=O)c(F)cc1Nc1ncc2c(n1)n([C@H]1CC[C@](C)(O)CC1)c(=O)n2C [Compound 73, 2-Fluoro-4-((9-(trans-4-hydroxy-4-methylcyclohexyl)-7-methyl-8-oxo-8,9-dihydro-7H-purin-2-yl)amino)-5-methylbenzamide] | AUC ([2]; iv, 1 mg/kg): 239 ng·h/mL; half-life ([2]; iv, 1 mg/kg): 1.24 h; bioavailability [2]: 56%; AUC ([2]; po, 10 mg/kg): 1270 ng·h/mL; Cmax ([2]; po, 10 mg/kg): 484 ng/mL; half-life ([2]; po, 10 mg/kg): 2.5 h
5 | > 120 min | 47.1 nM | Cc1cc(C(N)=O)c(F)cc1Nc1ncc2c(n1)n(C1CCNCC1)c(=O)n2C [Compound 81, 2-Fluoro-5-methyl-4-((7-methyl-8-oxo-9-(piperidin-4-yl)-8,9-dihydro-7H-purin-2-yl)amino)benzamide] | –
6 | > 120 min | 24.5 nM | Cc1cc(C(N)=O)c(F)cc1Nc1ncc2c(n1)n(C1CCN(C)CC1)c(=O)n2C [Compound 82, 2-Fluoro-5-methyl-4-((7-methyl-9-(1-methylpiperidin-4-yl)-8-oxo-8,9-dihydro-7H-purin-2-yl)amino)benzamide] | –
7 | > 120 min | 0.43 nM | Cc1cc(C(N)=O)c(F)cc1Nc1ncc2c(n1)n(C1CCC(F)(F)CC1)c(=O)n2C [Compound 83, 4-((9-(4,4-difluorocyclohexyl)-7-methyl-8-oxo-8,9-dihydro-7H-purin-2-yl)amino)-2-fluoro-5-methylbenzamide] | –
8 | > 120 min | 0.75 nM | Cc1cc(C(N)=O)c(F)cc1Nc1ncc2c(n1)n([C@H]1C[C@H](O)C1)c(=O)n2C [Compound 93, 2-Fluoro-4-((9-(trans-3-hydroxycyclobutyl)-7-methyl-8-oxo-8,9-dihydro-7H-purin-2-yl)amino)-5-methylbenzamide] | –

Continued, compound first:

Row | SMILES | half-life at 0.5 µM [1] | IC50 (DNA-PK kinase) | further results
9 | [2H]C([2H])([2H])c1cc(C#N)ccc1Nc1ncc2c(n1)n(C1CCOCC1)c(=O)n2C (single isomer, unassigned) [Compound 25, 3-(Methyl-d3)-4-((7-methyl-8-oxo-9-(tetrahydro-2H-pyran-4-yl)-8,9-dihydro-7H-purin-2-yl)amino)benzonitrile] | > 120 min | – | –
10 | Cc1cc(C(N)=O)c(F)cc1Nc1ncc2c(n1)n(C1CCC(C)(C#N)CC1)c(=O)n2C (single isomer, unassigned) [Compound 92-2, 4-((9-(4-cyano-4-methylcyclohexyl)-7-methyl-8-oxo-8,9-dihydro-7H-purin-2-yl)amino)-2-fluoro-5-methylbenzamide] | – | – | T½(min), stability in human liver microsomes [1]: >120 min
11 | Cc1cc(C#N)c(F)cc1Nc1ncc2c(n1)n(C1CCOCC1)c(=O)n2C [Compound 8, 2-Fluoro-5-methyl-4-((7-methyl-8-oxo-9-(tetrahydro-2H-pyran-4-yl)-8,9-dihydro-7H-purin-2-yl)amino)benzonitrile] | > 120 min | 11.7 nM | –
12 | COc1cc(C)c(Nc2ncc3c(n2)n(C2CCOCC2)c(=O)n3C)cn1 [Compound 9, 2-((6-methoxy-4-methylpyridin-3-yl)amino)-7-methyl-9-(tetrahydro-2H-pyran-4-yl)-7,9-dihydro-8H-purin-8-one] | > 120 min | 0.47 nM | AUC ([2]; iv, 1 mg/kg): 323 ng·h/mL; half-life ([2]; iv, 1 mg/kg): 0.41 h; bioavailability [2]: 51.4%; AUC ([2]; po, 10 mg/kg): 1660 ng·h/mL; Cmax ([2]; po, 10 mg/kg): 1490 ng/mL; half-life ([2]; po, 10 mg/kg): 1.34 h
13 | [2H]C([2H])([2H])NC(=O)c1cc(C)c(Nc2ncc3c(n2)n(C2CCOCC2)c(=O)n3C)cn1 [Compound 39, 4-Methyl-N-(methyl-d3)-5-((7-methyl-8-oxo-9-(tetrahydro-2H-pyran-4-yl)-8,9-dihydro-7H-purin-2-yl)amino)picolinamide] | > 120 min | 5.7 nM | –
14 | [2H]C([2H])([2H])c1cc(C(N)=O)c(F)cc1Nc1ncc2c(n1)n(C1CCOCC1)c(=O)n2C [Compound 44, 2-Fluoro-5-(methyl-d3)-4-((7-methyl-8-oxo-9-(tetrahydro-2H-pyran-4-yl)-8,9-dihydro-7H-purin-2-yl)amino)benzamide] | > 120 min | 1.1 nM | –
15 | Cc1cc(C(N)=O)c(C(F)(F)F)cc1Nc1ncc2c(n1)n(C1CCOCC1)c(=O)n2C [Compound 48, 5-Methyl-4-((7-methyl-8-oxo-9-(tetrahydro-2H-pyran-4-yl)-8,9-dihydro-7H-purin-2-yl)amino)-2-(trifluoromethyl)benzamide] | > 120 min | 1.96 nM | –
16 | CCOc1cc(Nc2ncc3c(n2)n(C2CCOCC2)c(=O)n3C)c(C)cc1C(N)=O [Compound 53, 2-Ethoxy-5-methyl-4-((7-methyl-8-oxo-9-(tetrahydro-2H-pyran-4-yl)-8,9-dihydro-7H-purin-2-yl)amino)benzamide] | > 120 min | 0.32 nM | –
17 | COc1cc(Nc2ncc3c(n2)n(C2CCOCC2)c(=O)n3C)c(C)cc1C(N)=O [Compound 57, 2-Methoxy-5-methyl-4-((7-methyl-8-oxo-9-(tetrahydro-2H-pyran-4-yl)-8,9-dihydro-7H-purin-2-yl)amino)benzamide] | > 120 min | 3.98 nM | –
18 | Cc1cc(C(N)=O)c(F)cc1Nc1ncc2c(n1)n(C1CC3CCC(C1)O3)c(=O)n2C (stereo not shown) [Compound 85, 4-((9-(8-oxabicyclo[3.2.1]octan-3-yl)-7-methyl-8-oxo-8,9-dihydro-7H-purin-2-yl)amino)-2-fluoro-5-methylbenzamide] | > 120 min | 1.1 nM | –
